# According to patent publication US10668020B1, “Pullulan based vinpocetine tablets, lyoplant-tabs, as a buccal solid dosage form” (King Abdulaziz University, priority 2019, dated 2020):
# Assays:
# [1] = Equilibrium saturation solubility and solubilization efficiency; assay type: physicochemical; details: distilled water, thermodynamic from solid; pure drug, water at 25° C.; read-out: solubility of VPN in water
# Method: To study the effects of the prepared solid dispersions on the solubility of VPN, the equilibrium solubility was determined as previously reported. (Ahmed et al. Pharm Dev Technol. 2011; 16 (5):497-510). An excess amount of either pure drug or the prepared solid dispersions were added to screw-capped vials containing 10 mL of distilled water. The vials were placed in a thermostatically controlled shaking water bath (Model 1031; GFL Corporation. Burgwedel, Germany) at 25±0.5° C. for 48 h. […] Aliquots withdrawn were filtered through a 0.22 μm pore-size Millipore filter and assayed for drug content using high performance liquid chromatography (HPLC) method Ding et al. Asian J Pharm Sci. 2015; 10:114-120. doi:10.1016/j.ajps.2014.08.008), with slight modifications. An isocratic HPLC method was performed using Agilent 1200 series equipped with UV diode array detector. A reversed phase C18 analytical column (4×250 mm, 5 μm; Thermo Fischer Scientific) was used. The mobile phase was composed of a mixture of methanol and 0.05 ammonium acetate buffer of pH 5.5, 80:20 (v/v). The flow rate of the mobile phase was 1 mL/min, the injection volume was 20 μL and the detection wave length was 273 nm. […]
# The solubility of vinpocetine, in the prepared solid dispersions, was compared to the intrinsic drug solubility and the resulting ratios of solubilization efficiency (solubility enhancement) were calculated. […]
# [2] = Phase solubility study and thermodynamic parameter of solubility in aqueous PVP-VA64 solution; assay type: physicochemical
# Method: An excess amount of pure VPN was added separately into screw-capped vials containing 10 mL of aqueous polyvinyl pyrrolidone vinyl acetate (PVP-VA64) solution (0-10% w/v). The vials were sealed and shaken in a water bath at 37° C. for 72 h. Aliquots (n=3) from each vial were filtered through a 0.22 μm pore-size Millipore filter, and the filtrates were assayed by HPLC. The change in the solubility of VPN resulting from the addition of different PVP-VA-64 concentrations was used to construct a phase-solubility plot and to evaluate the stoichiometry and the stability constant of complexation (Kst), which exemplifies the strength of the interaction and stability of the complex formed.
# Calculation of the apparent stability constant, Kst, was achieved from the phase solubility diagram according to the equation described by Higuchi and Connors (Adv Anal Chem Instrum. 1965; 4:117-210), based on the assumption that 1:1 complex was initially formed.
# [formula] In the equation, “So” represents the drug solubility in the absence of the studied polymer (the intercept of the phase solubility diagram constructed).
# To evaluate the solubilizing efficiency of the studied polymer for the drug, the complexation efficiency (CE) was determined. It was calculated according to the following equation: CE=So K1:1=slope/(1-slope).
# The Gibbs free energy (ΔG°tr) for the transfer of VPN from pure water to aqueous solutions of PVP-VA-64 was calculated using the following equation: ΔG°tr=−2.303 RT Log (Sc/So) where Sc/So is the ratio of the molar drug solubility in an aqueous solution of PVP-VA-64 to that of pure water. R is the gas rate constant ([…]) and T is the temperature in Kelvin at which the study was conducted. The Gibbs free energy can also be referred to as the thermodynamic potential that is minimized when a system reaches chemical equilibrium from an initial state to a final state at constant pressure and temperature. Dissolution of the Prepared Solid Dispersion
# [3] = In vitro dissolution of the prepared solid dispersion (USP apparatus II); assay type: physicochemical; details: simulated intestinal fluid pH 6.8, 37° C.
# Method: An in vitro dissolution study of the pure drug and the vinpocetin-PVP-VA64 inclusion complex (equivalent to 5 mg VPN) was performed in triplicate, using the United States Pharmacopeia (USP) dissolution test apparatus II paddle type, DT 700 LH device, Erweka GmbH DT 700 (Heusenstamm, Germany) at 37° C. for 2 h, with a stirring rate of 50 rpm, in 900 mL of enzyme-free simulated intestinal fluid (pH 6.8). Aliquots were collected at 5, 10, 15, 20, 25, 30, 45, 60, 90 and 120 min, with immediate replacement of an equal volume of fluid, and the collected samples were filtered through a 0.22 μm pore-size Millipore filter and assayed for drug content using high performance liquid chromatography (HPLC). From the dissolution profile curve constructed, DP5min, DP30min and DP120min, the percent of drug dissolved within 5, 30 and 120 minutes, respectively, were estimated. Also, the dissolution efficiency within 10 and 120 minutes, (DE10min) and (DE120min), respectively and, the mean dissolution time were calculated. For each formulation, the dissolution efficiency was determined as the percent ratio of area under the dissolution profile curve up to the time, t, to that of the area of the rectangle described by 100% dissolution at the same time.
# [4] = weak basic drug; cited from earlier work
# [5] = background statement; cited from earlier work
compound,measurement,setting,value
CCOC(=O)C1=C[C@]2(CC)CCCN3CCc4c(n1c1ccccc41)[C@@H]32 [Vinpocetine],solubility at 48 h,[1],2.31 µg/mL
same,ΔG°tr,[2]; 1% polymeric solution (PVP-VA-64),-1.144722 kcal/mol
same,ΔG°tr,[2]; 2% polymeric solution (PVP-VA-64),-1.513035 kcal/mol
same,ΔG°tr,[2]; 3% polymeric solution (PVP-VA-64),-1.766491 kcal/mol
same,ΔG°tr,[2]; 4% polymeric solution (PVP-VA-64),-2.010924 kcal/mol
same,ΔG°tr,[2]; 5% polymeric solution (PVP-VA-64),-2.097426 kcal/mol
same,ΔG°tr,[2]; 6% polymeric solution (PVP-VA-64),-2.189169 kcal/mol
same,ΔG°tr,[2]; 7% polymeric solution (PVP-VA-64),-2.315229 kcal/mol
same,ΔG°tr,[2]; 8% polymeric solution (PVP-VA-64),-2.413399 kcal/mol
same,ΔG°tr,[2]; 9% polymeric solution (PVP-VA-64),-2.456587 kcal/mol
same,ΔG°tr,[2]; 10% polymeric solution (PVP-VA-64),-2.547512 kcal/mol
same,type of complexation (phase solubility profile),[2]; VPN with PVP-VA-64,AP-type complexation
same,complexation efficiency CE,"[2]; VPN with PVP-VA-64, 37° C.",0.0014
same,stability constant Kst,"[2]; VPN with PVP-VA-64, 37° C., 1:1 complex assumed",7 mL/mg
same,"DE120, dissolution efficiency within 120 minutes",[3],18.67±3.73%
same,"DE10min, dissolution efficiency within 10 minutes",[3],0.428±0.159%
same,"DP5min, percent of drug dissolved within 5 minutes",[3]; 50 rpm,5.62±2.45%
same,"DP30min, percent of drug dissolved within 30 minutes",[3]; 50 rpm,16.46±3.58%
same,"DP120min, percent of drug dissolved within 120 minutes",[3]; 50 rpm,22.41±6.04%
same,pKa,[4],7.31
same,elimination half-life,[5],1 to 2 h
same,first pass metabolism (metabolism in liver),[5],75%
